In patent US12264159B2, “Functionalized heterocycles as antiviral agents” (Enanta Pharmaceuticals, Inc., priority 2018, dated 2025):

Tests used:
HBV in 2.2.15 cells = assay: 2.2.15 cells: viral product in cell lysates quantified via quantitative real time PCR; assay type: cell-based, hepatitis B virus (HBV); conditions: Hepatitis B virus, 120 h, day 5 post treatment, 50% reduction of viral product vs no drug controls, readout (qPCR, HBsAg or HBeAg) not specified for the column
Experimental: 2.2.15 cells are passaged upon attaining confluency in DMEM/F12 media in the presence of 10% FBS, Penn/Strep, and 250 ug/mL G418. Novel compounds are 5 fold serially diluted in DMSO and added to 96 well plates containing 35,000 cells/well at a 1:200 dilution so that the final concentration of DMSO is 0.5%. On day 5, post treatment cell lysates and supernatants are harvested for analysis.
Cells are lysed using Agilent Sidestep Lysis buffer, diluted 1:100 and quantified via quantitative real time PCR. Commercially available ELISA kits are used to quantitate the viral proteins HBsAg (Alpco) or HBeAg (US Biological) by following the manufacturer's recommended protocol after diluting samples to match the linear range of their respective assays. Irrespective of readout, compound concentrations that reduce viral product accumulation in the cell lysates or supernatants by 50% relative to no drug controls (EC50) are reported; EC50 ranges are as follows: A<0.1 μM; B 0.2-1 μM; C>1 μM.

[1] = Compound induced cellular toxicity in HepG2 cells, ATPlite 1Step; assay type: cell-based; conditions: human, three days exposure, 50% reduction of total ATP vs no drug controls
Experimental: At day 3, post seeding cells are treated with ATPlite 1Step according to the manufacturer's instructions.

| SMILES | EC50 (HBV in 2.2.15 cells) [nM] | CC50 at 3 days [1] [nM] |
| --- | --- | --- |
| O=C(O)c1cn2c(cc1=O)-c1c(-c3ccccc3)c(-c3ccccc3)nn1CC2 [Example 199, 10-oxo-1,2-diphenyl-5,6-dihydro-10H-pyrazolo[1,5-a]pyrido[2,1-c]pyrazine-9-carboxylic acid] | < 100 | > 25000 |
| CC(C)(C)[C@@H]1Cn2nc(-c3ccc(F)c4c3OCO4)cc2-c2cc(=O)c(C(=O)O)cn21 [Example 22, (R)-6-(tert-butyl)-2-(7-fluorobenzo[d][1,3]dioxol-4-yl)-10-oxo-5,6-dihydro-10H-pyrazolo[1,5-a]pyrido[2,2-c]pyrazine-12-carboxylic acid] | < 100 | > 25000 |
| CC(C)(C)[C@@H]1Cn2nc(-c3cc(F)ccc3F)cc2-c2cc(=O)c(C(=O)O)cn21 [Example 61, (R)-6-(tert-butyl)-2-(2,5-difluorophenyl)-10-oxo-5,6-dihydro-10H-pyrazolo[1,5-a]pyrido[2,2-c]pyrazine-12-carboxylic acid] | < 100 | > 25000 |
| CC(C)(C)[C@@H]1Cn2nc(-c3c(F)cccc3C(N)=O)cc2-c2cc(=O)c(C(=O)O)cn21 [Example 53, (R)-6-(tert-butyl)-2-(2-carbamoyl-6-fluorophenyl)-10-oxo-5,6-dihydro-10H-pyrazolo[1,5-a]pyrido[2,2-c]pyrazine-12-carboxylic acid] | 200 to 1000 | > 25000 |
| CC(C)[C@@H]1Cn2nc(-c3cccc(F)c3)c(-c3cccc(F)c3)c2-c2c(F)c(=O)c(C(=O)O)cn21 [Example 188, (R)-11-fluoro-1,2-bis(3-fluorophenyl)-6-isopropyl-10-oxo-5,6-dihydro-10H-pyrazolo[1,5-a]pyrido[2,1-c]pyrazine-9-carboxylic acid] | < 100 | > 25000 |
| CC(C)(C)[C@@H]1Cn2nc(-c3ccc(F)cc3F)cc2-c2cc(=O)c(C(=O)O)cn21 [Example 8, (R)-6-(tert-butyl)-2-(2,4-difluorophenyl)-10-oxo-5,6-dihydro-10H-pyrazolo[1,5-a]pyrido[2,2-c]pyrazine-12-carboxylic acid] | < 100 | > 25000 |
| COCCOc1ccccc1-c1cc2n(n1)C[C@@H](C(C)(C)C)n1cc(C(=O)O)c(=O)cc1-2 [Example 79, (R)-6-(tert-butyl)-2-(2-(2-methoxyethoxy)phenyl)-10-oxo-5,6-dihydro-10H-pyrazolo[1,5-a]pyrido[2,2-c]pyrazine-12-carboxylic acid] | < 100 | > 25000 |
| CC(C)(C)[C@@H]1Cn2nc(C3CC3)c(-c3cccc4c3OC(F)(F)O4)c2-c2cc(=O)c(C(=O)O)cn21 [Example 150, (R)-6-(tert-butyl)-2-cyclopropyl-1-(2,2-difluorobenzo[d][1,3]dioxol-4-yl)-10-oxo-5,6-dihydro-10H-pyrazolo[1,5-a]pyrido[2,1-c]pyrazine-9-carboxylic acid] | < 100 | > 25000 |
| CC(C)(C)[C@@H]1Cn2ncc(-c3c(F)ccc4c3OCO4)c2-c2cc(=O)c(C(=O)O)cn21 [Example 123, (R)-6-(tert-butyl)-1-(5-fluorobenzo[d][1,3]dioxol-4-yl)-10-oxo-5,6-dihydro-10H-pyrazolo[1,5-a]pyrido[2,1-c]pyrazine-9-carboxylic acid] | < 100 | > 25000 |
| COc1cc(-c2cc3n(n2)C[C@@H](C(C)(C)C)n2cc(C(=O)O)c(=O)cc2-3)c(OC)nn1 [Example 16, (R)-6-(tert-butyl)-2-(3,6-dimethoxypyridazin-4-yl)-10-oxo-5,6-dihydro-10H-pyrazolo[1,5-a]pyrido[2,2-c]pyrazine-12-carboxylic acid] | < 100 | > 25000 |
| CC(C)(C)[C@@H]1Cn2ncc(-c3cccc4c3OC(F)(F)O4)c2-c2cc(=O)c(C(=O)O)cn21 [Example 111, (R)-6-(tert-butyl)-1-(2,2-difluorobenzo[d][1,3]dioxol-4-yl)-10-oxo-5,6-dihydro-10H-pyrazolo[1,5-a]pyrido[2,1-c]pyrazine-9-carboxylic acid] | < 100 | > 25000 |
| CC(C)(C)[C@@H]1Cn2nc(-c3c(F)ccc4c3OCO4)cc2-c2cc(=O)c(C(=O)O)cn21 [Example 54, (R)-6-(tert-butyl)-2-(5-fluorobenzo[d][1,3]dioxol-4-yl)-10-oxo-5,6-dihydro-10H-pyrazolo[1,5-a]pyrido[2,2-c]pyrazine-12-carboxylic acid] | < 100 | > 25000 |
| CC(C)(C)[C@@H]1Cn2nc(-c3ccccc3OCC3CC3)cc2-c2cc(=O)c(C(=O)O)cn21 [Example 75, (R)-6-(tert-butyl)-2-(2-(cyclopropylmethoxy)phenyl)-10-oxo-5,6-dihydro-10H-pyrazolo[1,5-a]pyrido[2,2-c]pyrazine-12-carboxylic acid] | < 100 | > 25000 |
| CC(C)(C)[C@@H]1Cn2nc(C3CC3)c(-c3ccoc3)c2-c2cc(=O)c(C(=O)O)cn21 [Example 152, (R)-6-(tert-butyl)-2-cyclopropyl-1-(furan-3-yl)-10-oxo-5,6-dihydro-10H-pyrazolo[1,5-a]pyrido[2,1-c]pyrazine-9-carboxylic acid] | < 100 | > 25000 |
| CCCCOc1ccccc1-c1cc2n(n1)C[C@@H](C(C)(C)C)n1cc(C(=O)O)c(=O)cc1-2 [Example 78, (R)-2-(2-butoxyphenyl)-6-(tert-butyl)-10-oxo-5,6-dihydro-10H-pyrazolo[1,5-a]pyrido[2,2-c]pyrazine-12-carboxylic acid] | < 100 | > 25000 |
| CC(C)(C)[C@@H]1Cn2nnc(-c3ccc(F)cc3)c2-c2cc(=O)c(C(=O)O)cn21 [Example 208, (R)-6-(tert-butyl)-1-(4-fluorophenyl)-10-oxo-5,6-dihydro-10H-pyrido[1,2-a][1,2,3]triazolo[5,1-c]pyrazine-9-carboxylic acid] | < 100 | > 25000 |
| CC(C)(C)[C@@H]1Cn2nc(-c3ccccc3OC3CCCC3)cc2-c2cc(=O)c(C(=O)O)cn21 [Example 76, (R)-6-(tert-butyl)-2-(2-(cyclopentyloxy)phenyl)-10-oxo-5,6-dihydro-10H-pyrazolo[1,5-a]pyrido[2,2-c]pyrazine-12-carboxylic acid] | < 100 | > 25000 |
| Cc1cccc(F)c1-c1cc2n(n1)C[C@@H](C(C)(C)C)n1cc(C(=O)O)c(=O)cc1-2 [Example 51, (R)-6-(tert-butyl)-2-(2-fluoro-6-methylphenyl)-10-oxo-5,6-dihydro-10H-pyrazolo[1,5-a]pyrido[2,2-c]pyrazine-12-carboxylic acid] | 200 to 1000 | > 25000 |
| CC(C)(C)[C@@H]1Cn2ncc(-c3ccccc3F)c2-c2cc(=O)c(C(=O)O)cn21 [Example 104, (R)-6-(tert-butyl)-1-(2-fluorophenyl)-10-oxo-5,6-dihydro-10H-pyrazolo[1,5-a]pyrido[2,1-c]pyrazine-9-carboxylic acid] | < 100 | 10000 to 25000 |
| CC(C)(C)[C@@H]1Cn2nc(C3CC3)c(-c3ccco3)c2-c2cc(=O)c(C(=O)O)cn21 [Example 159, (R)-6-(tert-butyl)-2-cyclopropyl-1-(furan-2-yl)-10-oxo-5,6-dihydro-10H-pyrazolo[1,5-a]pyrido[2,1-c]pyrazine-9-carboxylic acid] | < 100 | > 25000 |
